Patent US9163256B2, “Mutant receptors and their use in a nuclear receptor-based inducible gene expression system” (priority 2004, dated 2015)
pEC50: −log10 of the molar value. Values joined by “and” are separate entries in the source; they are usually repeats but may differ in a detail not shown here. Equal entries are not always repeated.

Tests used:
Assay in all cases: cell-based
CfEcR-DEF mutant W238E = CfEcR-DEF mutant W238E (Choristoneura fumiferana, UniProt O77255, W521E)
Experimental: (§1) This construct was prepared in the same way as in switch 1.1 above except wild-type CfEcR-DEF was replaced with mutant CfEcR-DEF comprising a ligand binding domain comprising a substitution mutation selected from Table 1 below.
(§2) DNAs were transfected into mouse NIH3T3 cells (ATCC) as follows. Standard methods for culture and maintenance of the cells were followed. Cells were harvested and plated 96-well plates at 2,500 cells per well, in 50 μL of growth medium containing 10% fetal bovine serum (FBS). Twenty-four hours later, the cells were treated with 35 μL of serum-free growth medium containing either dimethylsulfoxide (DMSO; control) or a DMSO solution of ligand. The cells were then transfected using Superfect (Qiagen Inc.) transfection reagent. For each well, 0.625 μL of Superfect was mixed with 14.2 μL of serum-free growth medium. 0.16 μg of reporter construct and 0.04 μg of each receptor construct were added to the transfection reagent mix. The contents of the transfection mix were mixed in a vortex mixer and let stand at room temperature for 30 minutes. At the end of incubation, 15 μL of transfection mix was added to the cells. The cells were maintained at 37° C. and 5% CO2 for 48 hours in 5% FBS.
(§3) Reporter Assays: Cells were harvested 40 hours after adding ligands. 125 μL of passive lysis buffer (part of Dual-Luciferase reporter assay system from Promega Corporation) were added to each well of the […] plate. The plates were placed on a rotary shaker for 15 minutes. Twenty μL of lysate were assayed. Luciferase activity was measured using Dual-Luciferase reporter assay system from Promega Corporation following the manufacturer's instructions. Fold induction (FI) activities were calculated by dividing relative light units (“RLU”) in ligand treated cells with RLU in DMSO treated cells (untreated control).

CfEcR-DEF mutant T52P = CfEcR-DEF mutant T52P (Choristoneura fumiferana, UniProt O77255, T335P)
Experimental: as §1, §2, §3

CfEcR-DEF mutant F48W = CfEcR-DEF mutant F48W (Choristoneura fumiferana, UniProt O77255, F331W)
Experimental: as §1, §2, §3

CfEcR-DEF mutant V128F = CfEcR-DEF mutant V128F (Choristoneura fumiferana, UniProt O77255, V411F)
Experimental: as §1, §2, §3

CfEcR-DEF mutant Y120M = CfEcR-DEF mutant Y120M (Choristoneura fumiferana, UniProt O77255, Y403M)
Experimental: as §1, §2, §3

CfEcR-DEF mutant V96E = CfEcR-DEF mutant V96E (Choristoneura fumiferana, UniProt O77255, V379E)
Experimental: as §1, §2, §3

CfEcR-DEF mutant A110N = CfEcR-DEF mutant A110N (Choristoneura fumiferana, UniProt O77255, A393N)
Experimental: as §1, §2, §3

CfEcR-DEF mutant F109M = CfEcR-DEF mutant F109M (Choristoneura fumiferana, UniProt O77255, F392M)
Experimental: as §1, §2, §3

CfEcR-DEF mutant F48Y = CfEcR-DEF mutant F48Y (Choristoneura fumiferana, UniProt O77255, F331Y)
Experimental: as §1, §2, §3

CfEcR-DEF mutant M125P = CfEcR-DEF mutant M125P (Choristoneura fumiferana, UniProt O77255, M408P)
Experimental: as §1, §2, §3

CfEcR-DEF mutant V96L = CfEcR-DEF mutant V96L (Choristoneura fumiferana, UniProt O77255, V379L)
Experimental: as §1, §2, §3

CfEcR-DEF mutant R95W = CfEcR-DEF mutant R95W (Choristoneura fumiferana, UniProt O77255, R378W)
Experimental: as §1, §2, §3

CfEcR-DEF mutant V96S = CfEcR-DEF mutant V96S (Choristoneura fumiferana, UniProt O77255, V379S)
Experimental: as §1, §2, §3

CfEcR-DEF mutant F109N = CfEcR-DEF mutant F109N (Choristoneura fumiferana, UniProt O77255, F392N)
Experimental: as §1, §2, §3

CfEcR-DEF mutant A110P = CfEcR-DEF mutant A110P (Choristoneura fumiferana, UniProt O77255, A393P)
Experimental: as §1, §2, §3

CfEcR-DEF mutant L234I = CfEcR-DEF mutant L234I (Choristoneura fumiferana, UniProt O77255, L517I)
Experimental: as §1, §2, §3

CfEcR-DEF mutant T52L = CfEcR-DEF mutant T52L (Choristoneura fumiferana, UniProt O77255, T335L)
Experimental: as §1, §2, §3

CfEcR-DEF mutant M54T = CfEcR-DEF mutant M54T (Choristoneura fumiferana, UniProt O77255, M337T)
Experimental: as §1, §2, §3

CfEcR-DEF mutant F109W = CfEcR-DEF mutant F109W (Choristoneura fumiferana, UniProt O77255, F392W)
Experimental: as §1, §2, §3

CfEcR-DEF mutant F109L = CfEcR-DEF mutant F109L (Choristoneura fumiferana, UniProt O77255, F392L)
Experimental: as §1, §2, §3

[1] = NIH3T3, 40 h, read-out: Rel Max FI

CfEcR-DEF mutant V128F, sequence (P28702 299-449): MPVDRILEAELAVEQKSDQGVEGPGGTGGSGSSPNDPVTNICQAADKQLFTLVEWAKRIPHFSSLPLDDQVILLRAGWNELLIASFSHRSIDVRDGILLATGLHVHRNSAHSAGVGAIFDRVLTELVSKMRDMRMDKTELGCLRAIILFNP
CfEcR-DEF mutant V128F, sequence (O77255 entry or part of it V411F): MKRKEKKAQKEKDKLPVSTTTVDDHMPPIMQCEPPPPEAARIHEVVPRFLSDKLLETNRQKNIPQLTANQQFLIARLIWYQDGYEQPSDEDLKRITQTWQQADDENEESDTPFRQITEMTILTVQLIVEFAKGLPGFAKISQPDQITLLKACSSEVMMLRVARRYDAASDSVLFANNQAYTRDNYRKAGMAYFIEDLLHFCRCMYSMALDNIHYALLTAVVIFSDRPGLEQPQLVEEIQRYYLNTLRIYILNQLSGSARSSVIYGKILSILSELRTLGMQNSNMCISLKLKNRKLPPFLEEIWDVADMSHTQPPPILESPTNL
CfEcR-DEF mutant L234I, sequence (P28702 299-449): as the sequence (P28702 299-449) above
CfEcR-DEF mutant L234I, sequence (O77255 entry or part of it L517I): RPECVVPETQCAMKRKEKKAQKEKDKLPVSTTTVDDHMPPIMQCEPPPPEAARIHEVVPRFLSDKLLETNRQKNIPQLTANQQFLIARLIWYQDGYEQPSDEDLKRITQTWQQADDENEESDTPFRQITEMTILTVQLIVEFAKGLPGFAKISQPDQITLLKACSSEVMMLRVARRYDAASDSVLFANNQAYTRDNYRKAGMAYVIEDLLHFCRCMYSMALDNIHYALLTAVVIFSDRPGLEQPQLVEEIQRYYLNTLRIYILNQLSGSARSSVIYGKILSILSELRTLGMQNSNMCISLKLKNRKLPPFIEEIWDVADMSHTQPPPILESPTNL
CfEcR-DEF mutant W238E, sequence (P28702 299-449): as the sequence (P28702 299-449) above
CfEcR-DEF mutant W238E, sequence (O77255 entry or part of it W521E): as the sequence (O77255 entry or part of it V411F) above, with F193V, W303E counted along it
CfEcR-DEF mutant F48W, sequence (P28702 299-449): as the sequence (P28702 299-449) above
CfEcR-DEF mutant F48W, sequence (O77255 entry or part of it F331W): as the sequence (O77255 entry or part of it L517I) above, with F125W, I311L counted along it
CfEcR-DEF mutant F109L, sequence (P28702 299-449): as the sequence (P28702 299-449) above
CfEcR-DEF mutant F109L, sequence (O77255 entry or part of it F392L): as the sequence (O77255 entry or part of it L517I) above, with F186L, I311L counted along it
CfEcR-DEF mutant F109N, sequence (P28702 299-449): as the sequence (P28702 299-449) above
CfEcR-DEF mutant F109N, sequence (O77255 entry or part of it F392N): as the sequence (O77255 entry or part of it L517I) above, with F186N, I311L counted along it
CfEcR-DEF mutant M125P, sequence (P28702 299-449): as the sequence (P28702 299-449) above
CfEcR-DEF mutant M125P, sequence (O77255 entry or part of it M408P): as the sequence (O77255 entry or part of it V411F) above, with M190P, F193V counted along it
CfEcR-DEF mutant Y120M, sequence (O77255 entry or part of it Y403M): as the sequence (O77255 entry or part of it V411F) above, with Y185M, F193V counted along it
CfEcR-DEF mutant Y120M, sequence (P28702 299-449, further chain): as the sequence (P28702 299-449) above
CfEcR-DEF mutant F109W, sequence (O77255 entry or part of it F392W): as the sequence (O77255 entry or part of it L517I) above, with F186W, I311L counted along it
CfEcR-DEF mutant F109W, sequence (P28702 299-449, further chain): as the sequence (P28702 299-449) above

## CCc1cccc(C(=O)NN(C(=O)c2cc(C)cc(C)c2)C(C)(C)C)c1C [RG-101691, 3,5-Dimethyl-benzoic acid N-tert-butyl-N′-(3-ethyl-2-methyl-benzoyl)-hydrazide]
CfEcR-DEF mutant W238E
  pEC50: ~5.10
CfEcR-DEF mutant W238E; [1]
  Emax: 71%
CfEcR-DEF mutant T52P
  pEC50: < 4.48
CfEcR-DEF mutant T52P; [1]
  Emax: 2%
CfEcR-DEF mutant F48W
  pEC50: 5.82
CfEcR-DEF mutant F48W; [1]
  Emax: 74%
CfEcR-DEF mutant V128F; EC50, mutant V128F
  pEC50: ~5.08 and 5.27
CfEcR-DEF mutant V128F; [1]
  Emax: 4%
CfEcR-DEF mutant Y120M
  pEC50: ~5.00
CfEcR-DEF mutant Y120M; [1]
  Emax: 30%
CfEcR-DEF mutant V96E
  pEC50: 5.79
CfEcR-DEF mutant V96E; [1]
  Emax: 81%
CfEcR-DEF mutant A110N
  pEC50: 6.06
CfEcR-DEF mutant A110N; [1]
  Emax: 99%
CfEcR-DEF mutant F109M
  pEC50: 6.19
CfEcR-DEF mutant F109M; [1]
  Emax: 75%
CfEcR-DEF mutant F48Y
  pEC50: 6.03
CfEcR-DEF mutant F48Y; [1]
  Emax: 69%
CfEcR-DEF mutant M125P
  pEC50: < 4.48
CfEcR-DEF mutant M125P; [1]
  Emax: 525%
CfEcR-DEF mutant V96L
  pEC50: 5.77
CfEcR-DEF mutant V96L; [1]
  Emax: 62%
CfEcR-DEF mutant R95W
  pEC50: ~5.00
CfEcR-DEF mutant R95W; [1]
  Emax: 37%
CfEcR-DEF mutant V96S
  pEC50: 6.06
CfEcR-DEF mutant V96S; [1]
  Emax: 90%
CfEcR-DEF mutant F109N
  pEC50: 5.40
CfEcR-DEF mutant F109N; [1]
  Emax: 85%
CfEcR-DEF mutant A110P
  pEC50: 6.17
CfEcR-DEF mutant A110P; [1]
  Emax: 89%
CfEcR-DEF mutant L234I
  pEC50: 6.03
CfEcR-DEF mutant L234I; [1]
  Emax: 73%
CfEcR-DEF mutant T52L
  pEC50: 6.68
CfEcR-DEF mutant T52L; [1]
  Emax: 74%
CfEcR-DEF mutant M54T
  pEC50: 7.52
CfEcR-DEF mutant M54T; [1]
  Emax: 71%
CfEcR-DEF mutant F109W
  pEC50: 6.31
CfEcR-DEF mutant F109W; [1]
  Emax: 79%
CfEcR-DEF mutant F109L
  pEC50: 5.63
CfEcR-DEF mutant F109L; [1]
  Emax: 68%
